Read-outs that look alike come from different tables or passages of the source.
Key:
Format in all cases: cell-based, Human
[1] = system: MDA-MB-231 (breast); assay: SRB growth inhibition assay, MDA-MB-231; settings: read-out: Inhibition of cell growth (IC50, μM) MDA-MB-231
Description: (§1) Cancer cells used in this study to determine the effect of tetrahydroisoquinolin-2-yl-(quinazolin-4-yl)methanone compounds were obtained from the following sources: Human OVCAR-3 (ovary), SK-MEL-28 (melanoma), MDA-MB-231 (breast), HeLa (cervix), PC3 (prostate), HepG2 (liver), A549 (lung), Caki-1 (kidney), HCT116 (colon) and PANC-1 (pancreas) from the American Type Culture Collection (ATCC) (Manassas, Va.); U251 (brain) from Riken (Japan); MKN-45 (stomach) from DSMZ (Germany). All cell lines except MDA-MB-231, HCT116, Caki-1 and PANC-1 were grown in RPMI1640 medium (Invitrogen, Carlsbad, Calif.) supplemented with 10% fetal bovine serum (“FBS”), 1 mM sodium pyruvate, 10 mM HEPES and 100 U/ml penicillin and 100 μg/ml streptomycin (“P/S”). MDA-MB-231, HCT116, Caki-1 and PANC-1 cells were maintained in Dulbecco's modified Eagle's medium (“DMEM”, Invitrogen) supplemented with 10% FBS, P/S, 10 mM HEPES and 2 mM L-glutamine. All cells were incubated at 37° C. under humidified 5% CO2.
(§2) The growth inhibition of the tetrahydroisoquinolin-2-yl-(quinazolin-4-yl)methanone compounds against a variety of human tumor cells was evaluated to study the relative importance of particular substituent groups on the compounds. The tetrahydroisoquinolin-2-yl-(quinazolin-4-yl)methanone compounds, prepared as described above, were tested with DMSO as a control.
(§3) The growth inhibition assay of representative tetrahydroisoquinolin-2-yl-(quinazolin-4-yl)methanone derivatives against human tumor cell lines was performed using the Sulforhodamine B (“SRB”) method (Skehan et al., J. National Cancer Institute, 82: 1107-1112 (1990)). Briefly, exponentially growing tumor cells were seeded into a 96-well plate at a density of 2-3×10^3 cells/well and treated with tetrahydroisoquinolin-2-yl-(quinazolin-4-yl)methanone compounds the next day. Triplicate wells were used for each treatment. The cells were incubated with the various compounds for 96 hours at 37° C. in a humidified 5% CO2 atmosphere. After 96-hour incubation, cells were fixed with 10% trichloroacetic acid (“TCA”), incubated for 1 hour at 4° C., and washed 3 times with tap water. Subsequently, cells were stained with 0.4% sulforhodamine B in 1% acetic acid for 30 minutes, washed 4 times with 1% acetic acid, and air-dried again After 5 minutes agitation in 10 mM Tris solution, the absorbance of each well was measured at 530 nm using Benchmark Plus Microplate reader (Bio-Rad Laboratories, Hercules, Calif.).
(§4) To translate the OD530 values into the number of live cells in each well, the OD530 values were compared to those on standard OD530-versus-cell number curves generated for each cell line. The percent survival was calculated using the formula: % Survival=live cell number [test]/live cell number [control]×100
(§5) The IC50 values were calculated by non-linear regression analysis.
(§6) The compounds were screened against at […] including PANC-1, MDA-MB-231, HCT116 and Caki-1, at approximately 1 μM concentration. The inhibition of cell growth (IC50, μM) of some tetrahydroisoquinolin-2-yl-(quinazolin-4-yl)methanone compounds are shown in Table 2.

[2] = system: PANC-1 (pancreas); assay: SRB growth inhibition assay, PANC-1; settings: read-out: Inhibition of cell growth (IC50, μM) Panc-1
Description: as §1, §2, §3, §4, §5, §6

[3] = system: HCT116 (colon); assay: SRB growth inhibition assay, HCT116; settings: read-out: Inhibition of cell growth (IC50, μM) HCT116
Description: as §1, §2, §3, §4, §5, §6

[4] = system: Caki-1 (kidney); assay: SRB growth inhibition assay, Caki-1; settings: read-out: Inhibition of cell growth (IC50, μM) Caki-1
Description: as §1, §2, §3, §4, §5, §6

[5] = Homo sapiens, MDA-MB-231, 96 hours incubation
[6] = Homo sapiens, PANC-1, 96 hours incubation
[7] = Homo sapiens, HCT-116, 96 hours incubation
[8] = Homo sapiens, CAKI-1, 96 hours incubation

Compound | IC50 [1, 5] [µM] | IC50 [2, 6] [µM] | IC50 [3, 7] [µM] | IC50 [4, 8] [µM] | IC50 ([1]; 96 hours incubation) [µM] | IC50 ([2]; 96 hours incubation) [µM] | IC50 ([3]; 96 hours incubation) [µM] | IC50 ([4]; 96 hours incubation) [µM]
COc1ccc(-c2nc(C(=O)N3CCc4c(ccc(OC)c4OC)C3)c3ccccc3n2)cc1 [Compound 24, 2-[[2-(4-methoxylphenyl)quinazolin-4-yl]carbonyl]-5,6-dimethoxy-1,2,3,4-tetrahydroisoquinoline] | 0.41 | 0.46 | 0.49 | 0.38 | – | – | – | –
COc1ccc2c(c1O)CCN(C(=O)c1nc(-c3ccc(N)cc3)nc3ccccc13)C2 [Compound 96, 2-[[2-(4-aminophenyl)quinazolin-4-yl]carbonyl]-5-hydroxy-6-methoxy-1,2,3,4-tetrahydroisoquinoline] | 0.23 | 0.28 | 0.36 | – | – | – | – | –
Cc1ccc2c(c1O)CCN(C(=O)c1nc(-c3cccnc3)nc3ccccc13)C2 [Compound 88, 2-[[2-(3-pyridinyl)quinazolin-4-yl]carbonyl]-5-hydroxy-6-methyl-1,2,3,4-tetrahydroisoquinoline] | 0.67 | 0.93 | 1.12 | 0.97 | – | – | – | –
CC(=O)Nc1ccc(-c2nc(C(=O)N3CCc4c(ccc(C)c4O)C3)c3ccccc3n2)cc1 [Compound 64, 2-[[2-(4-acetamidophenyl)quinazolin-4-yl]carbonyl]-5-hydroxy-6-methyl-1,2,3,4-tetrahydroisoquinoline] | 0.52 | 0.68 | 0.89 | 0.63 | – | – | – | –
Cc1ccc2c(c1O)CCN(C(=O)c1nc(-c3ccccc3)nc3ccccc13)C2 [Compound 21, 2-[[2-phenylquinazolin-4-yl]carbonyl]-5-hydroxy-6-methyl-1,2,3,4-tetrahydroisoquinoline] | 0.27 | 0.22 | 0.34 | 0.23 | – | – | – | –
COc1ccc2c(c1O)CCN(C(=O)c1nc(-c3ccc(NC(C)=O)cc3)nc3ccccc13)C2 [Compound 62, 2-[[2-(4-acetamidophenyl)quinazolin-4-yl]carbonyl]-5-hydroxy-6-methoxy-1,2,3,4-tetrahydroisoquinoline] | 0.2 | 0.21 | 0.34 | 0.2 | – | – | – | –
Cc1ccc(-c2nc(C(=O)N3CCc4c(ccc(C)c4O)C3)c3ccccc3n2)cc1 [Compound 16, 2-[[2-(4-methylphenyl)quinazolin-4-yl]carbonyl]-5-hydroxy-6-methyl-1,2,3,4-tetrahydroisoquinoline] | 1.5 | 1.72 | 2.05 | 1.61 | – | – | – | –
COc1ccc(-c2nc(C(=O)N3CCc4c(ccc(N(C)C)c4O)C3)c3ccccc3n2)cc1 [Compound 25, 2-[[2-(4-methoxylphenyl)quinazolin-4-yl]carbonyl]-5-hydroxy-6-dimethylamino-1,2,3,4-tetrahydroisoquinoline] | 2.53 | 1.77 | – | – | – | – | – | –
COc1ccc2c(c1O)CCN(C(=O)c1nc(-c3ccc([N+](=O)[O-])cc3)nc3ccccc13)C2 [Compound 95, 2-[[2-(4-nitrophenyl)quinazolin-4-yl]carbonyl]-5-hydroxy-6-methoxy-1,2,3,4-tetrahydroisoquinoline] | 0.11 | 0.2 | 0.16 | – | – | – | – | –
COc1ccc2c(c1O)CCN(C(=O)c1nc(-c3cccc(C(F)(F)F)c3)nc3ccccc13)C2 [Compound 52, 2-[[2-(3-(trifluoromethyl)phenyl)quinazolin-4-yl]carbonyl]-5-hydroxy-6-methoxy-1,2,3,4-tetrahydroisoquinoline] | 1.62 | 2.51 | 2.67 | 1.91 | – | – | – | –
COc1ccc2c(c1OC)CCN(C(=O)c1nc(-c3ccccc3)nc3ccccc13)C2 [Compound 19, 2-[[2-phenylquinazolin-4-yl]carbonyl]-5,6-dimethoxy-1,2,3,4-tetrahydroisoquinoline] | 0.84 | 1.06 | 1.08 | 0.85 | – | – | – | –
COc1ccc2c(c1OC)CCN(C(=O)c1nc(-c3ccncn3)nc3ccccc13)C2 [Compound 72, 2-[[2-(4-pyrimidinyl)quinazolin-4-yl]carbonyl]-5,6-dimethoxy-1,2,3,4-tetrahydroisoquinoline] | 0.46 | 0.49 | 0.55 | 0.39 | – | – | – | –
COc1ccc2c(c1O)CCN(C(=O)c1nc(-c3ccc(C(F)(F)F)cc3)nc3ccccc13)C2 [Compound 37, 2-[[2-(4-(trifluoromethyl)phenyl)quinazolin-4-yl]carbonyl]-5-hydroxy-6-methoxy-1,2,3,4-tetrahydroisoquinoline] | 0.42 | 0.43 | 0.55 | 0.36 | – | – | – | –
COc1ccc(-c2nc(C(=O)N3CCc4c(ccc(C)c4O)C3)c3ccccc3n2)cc1 [Compound 26, 2-[[2-(4-methoxylphenyl)quinazolin-4-yl]carbonyl]-5-hydroxy-6-methyl-1,2,3,4-tetrahydroisoquinoline] | 0.19 | 0.18 | 0.22 | 0.16 | – | – | – | –
Cc1ccc2c(c1O)CCN(C(=O)c1nc(-c3cscn3)nc3ccccc13)C2 [Compound 83, 2-[[2-(4-thiazolyl)quinazolin-4-yl]carbonyl]-5-hydroxy-6-methyl-1,2,3,4-tetrahydroisoquinoline] | 0.21 | 0.23 | 0.29 | 0.25 | – | – | – | –
COc1ccc2c(c1O)CCN(C(=O)c1nc(-c3ccc(C)cc3)nc3ccccc13)C2 [Compound 12, 2-[[2-(4-methylphenyl)quinazolin-4-yl]carbonyl]-5-hydroxy-6-methoxy-1,2,3,4-tetrahydroisoquinoline] | 0.23 | 0.18 | 0.29 | 0.2 | – | – | – | –
2-[[2-(3-fluorophenyl)phenyl)quinazolin-4-yl]carbonyl]-5-hydroxy-6-methyl-1,2,3,4-tetrahydroisoquinoline [Compound 46] | – | – | – | – | 0.58 | 0.51 | 0.54 | 0.52
COc1ccc2c(c1O)CCN(C(=O)c1nc(-c3ccc(N(C)C)cc3)nc3ccccc13)C2 [Compound 32, 2-[[2-(4-(dimethylamino)phenyl)quinazolin-4-yl]carbonyl]-5-hydroxy-6-methoxy-1,2,3,4-tetrahydroisoquinoline] | 0.43 | 0.47 | 0.52 | 0.37 | – | – | – | –
Cc1ccc2c(c1O)CCN(C(=O)c1nc(-c3ccc(F)cc3)nc3ccccc13)C2 [Compound 5, 2-[[2-(4-fluorophenyl)quinazolin-4-yl]carbonyl]-5-hydroxy-6-methyl-1,2,3,4-tetrahydroisoquinoline] | 0.38 | 0.4 | 0.47 | 0.36 | – | – | – | –
COc1ccc2c(c1OC)CCN(C(=O)c1nc(-c3ccc(F)cc3)nc3ccccc13)C2 [Compound 3, 2-[[2-(4-fluorophenyl)quinazolin-4-yl]carbonyl]-5,6-dimethoxy-1,2,3,4-tetrahydroisoquinoline] | 1.2 | 1.45 | 1.39 | 1.1 | – | – | – | –
COc1ccc2c(c1OC)CCN(C(=O)c1nc(-c3cccc(C(F)(F)F)c3)nc3ccccc13)C2 [Compound 54, 2-[[2-(3-(trifluoromethyl)phenyl)quinazolin-4-yl]carbonyl]-5,6-dimethoxy-1,2,3,4-tetrahydroisoquinoline] | 3.44 | – | 1.65 | – | – | – | – | –
